Source: ChEMBL document CHEMBL4265921, “Novel bisphosphonates with antiresorptive effect in bone mineralization and osteoclastogenesis” (Eur J Med Chem, 2018)
Activity calls are given as the source filed them. The rule behind the calls is not given here.

Experiments:
[1] = molecular target: T1, Farnesyl pyrophosphate synthase (Homo sapiens) (UniProt P14324); test: Inhibition of recombinant human C-terminal His6-tagged FPPS expressed in Escherichia coli BL21 at 100 uM using DMAPP and IPP as substrates pretreated for 15 mins followed by substrates addition and measured after 1 hr by colorimetric method relative to control
T1 sequence (whole entry): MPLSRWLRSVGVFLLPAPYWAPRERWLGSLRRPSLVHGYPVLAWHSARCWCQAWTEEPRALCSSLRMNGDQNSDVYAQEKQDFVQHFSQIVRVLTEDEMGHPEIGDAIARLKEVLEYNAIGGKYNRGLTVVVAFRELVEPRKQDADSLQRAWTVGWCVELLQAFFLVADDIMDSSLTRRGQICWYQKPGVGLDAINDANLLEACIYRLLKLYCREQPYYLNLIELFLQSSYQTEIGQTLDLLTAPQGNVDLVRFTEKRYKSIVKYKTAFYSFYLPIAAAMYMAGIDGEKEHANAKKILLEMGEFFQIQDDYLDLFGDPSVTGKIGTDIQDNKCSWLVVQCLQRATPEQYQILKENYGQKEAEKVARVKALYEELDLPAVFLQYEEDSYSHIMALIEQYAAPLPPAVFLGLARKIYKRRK

[2] = molecular target: T1, Farnesyl pyrophosphate synthase (Homo sapiens); test: Inhibition of recombinant human C-terminal His6-tagged FPPS expressed in Escherichia coli BL21 at 1 to 10 uM using DMAPP and IPP as substrates pretreated for 15 mins followed by substrates addition and measured after 1 hr by colorimetric method relative to control
MG-63 [3] = test: Antiproliferative activity against human MG63 cells assessed as reduction in cell proliferation at 500 uM after 72 hrs by crystal violet staining based assay; format: functional
PC-3 [4] = test: Antiproliferative activity against human PC3 cells assessed as reduction in cell proliferation at 500 uM after 72 hrs by crystal violet staining based assay; format: functional
[5] = molecular target: T2, Geranylgeranyl pyrophosphate synthase (Homo sapiens) (UniProt O95749); test: Inhibition of recombinant human C-terminal His6-tagged GGPPS expressed in Escherichia coli BL21 at 1 to 10 uM using IPP and FPP as substrates pretreated for 15 mins followed by substrates addition and measured after 1 hr by colorimetric method relative to control
T2 sequence (whole entry): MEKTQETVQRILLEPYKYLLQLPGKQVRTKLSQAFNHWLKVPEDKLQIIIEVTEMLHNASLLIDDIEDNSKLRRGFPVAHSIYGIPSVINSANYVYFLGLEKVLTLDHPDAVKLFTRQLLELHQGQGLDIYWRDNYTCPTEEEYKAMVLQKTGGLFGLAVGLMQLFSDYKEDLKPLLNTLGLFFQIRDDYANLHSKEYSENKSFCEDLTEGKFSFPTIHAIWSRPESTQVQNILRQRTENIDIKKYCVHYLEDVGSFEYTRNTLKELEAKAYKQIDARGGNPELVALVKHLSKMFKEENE

RAW264.7 [6] = test: Antiproliferative activity against mouse RAW264.7 cells assessed as change in cell proliferation at 100 uM after 72 hrs by crystal violet staining based assay relative to control; format: functional
J774.A1 [7] = test: Antiproliferative activity against mouse J774A.1 cells assessed as change in cell proliferation at 100 uM after 72 hrs by crystal violet staining based assay relative to control; format: functional
MG-63 [8] = test: Antiproliferative activity against human MG63 cells assessed as change in cell proliferation at 100 uM after 72 hrs by crystal violet staining based assay relative to control; format: functional
J774.A1 [9] = test: Antiproliferative activity against mouse J774A.1 cells assessed as reduction in cell proliferation at 500 uM after 72 hrs by crystal violet staining based assay; format: functional
RAW264.7 [10] = test: Antiproliferative activity against mouse RAW264.7 cells assessed as reduction in cell proliferation at 500 uM after 72 hrs by crystal violet staining based assay; format: functional
PC-3 [11] = test: Antiproliferative activity against human PC3 cells assessed as change in cell proliferation at 100 uM after 72 hrs by crystal violet staining based assay relative to control; format: functional
[12] = molecular target: T3, Farnesyl pyrophosphate synthase (Homo sapiens, UniProt P14324); test: Inhibition of recombinant human C-terminal His6-tagged FPPS expressed in Escherichia coli BL21 using DMAPP and IPP as substrates pretreated for 15 mins followed by substrates addition and measured after 1 hr by colorimetric method
T3 sequence (P14324 whole entry): T1 sequence (whole entry)

Hydroxyapatite = test: Binding affinity to hydroxyapatite at 100 uM using sodium salt form of compound after 5 mins by ESI/MS analysis

| Compound | inhibition [1] [%] | inhibition [2] [%] | Activity (MG-63 [3]) | Activity (PC-3 [4]) | inhibition [5] [%] | Activity (RAW264.7 [6]) [%] | Activity (J774.A1 [7]) [%] | Activity (MG-63 [8]) [%] | Activity (J774.A1 [9]) | Activity (RAW264.7 [10]) | Activity (PC-3 [11]) [%] | IC50 [12] [µM] | Activity (Hydroxyapatite) [%] |
| --- | --- | --- | --- | --- | --- | --- | --- | --- | --- | --- | --- | --- | --- |
| O=P(O)(O)C(O)(CSc1nc2ccccc2[nH]1)P(=O)(O)O | 24 | 68 to 79 | inactive | inactive | 68 to 79 |  |  |  |  |  |  |  |  |
| O=P(O)(O)C(O)(CCCNc1ncnc2ccccc12)P(=O)(O)O | 25 | 68 to 79 | inactive | inactive | 68 to 79 | -16.077 | -10.813 | 21.28 | inactive | inactive | -27.057 |  |  |
| O=P(O)(O)C(O)(CCNc1ncccn1)P(=O)(O)O | 54 | 68 to 79 | inactive | inactive | 68 to 79 | -18.897 | -3.329 | -18.291 | inactive | inactive | -49.419 |  |  |
| O=P(O)(O)C(O)(CCNc1ncc2ccccc2n1)P(=O)(O)O | 79 | 68 to 79 | inactive | inactive | 68 to 79 | -52.95 | -59.879 | 1.174 | inactive | inactive | -13.524 | 41 | 84 |
| O=P(O)(O)C(O)(CCCCc1ncccn1)P(=O)(O)O | 51 | 68 to 79 | inactive | inactive | 68 to 79 | -35.941 | -24.754 | -0.023 | inactive | inactive | -14.446 |  |  |
| O=P(O)(O)C(O)(CCNc1ncnc2ccccc12)P(=O)(O)O | 56 | 68 to 79 | inactive | inactive | 68 to 79 | -16.95 | 6.688 | 13.185 | inactive | inactive | -1.552 |  |  |
| O=P(O)(O)C(O)(CCCCc1ncnc2ccccc12)P(=O)(O)O | 29 | 68 to 79 | inactive | inactive | 68 to 79 | -29.565 | -15.466 | 24.024 | inactive | inactive | -10.283 |  |  |
| O=P(O)(O)C(O)(CNc1ncnc2ccccc12)P(=O)(O)O | 52 | 68 to 79 | inactive | inactive | 68 to 79 | -34.592 | -27.398 | -15.397 | inactive | inactive | -9.488 |  | 81 |
| O=P(O)(O)C(O)(CCNc1nc(-c2ccccc2)nc2ccccc12)P(=O)(O)O | 25 | 68 to 79 | inactive | inactive | 68 to 79 | -30.319 | -37.121 | -5.102 | inactive | inactive | -21.523 |  |  |
